Results: ChEMBL document CHEMBL1131370, “Identification of potent inhibitors of Plasmodium falciparum plasmepsin II from an encoded statine combinatorial library” (Bioorg Med Chem Lett, 1998)

Columns and labels:
[1] = biological target: Cathepsin D (Homo sapiens, UniProt P07339); experiment: Inhibitory activity against cathepsin D
[2] = test system: Plasmodium falciparum; experiment: Inhibitory activity against Plasmodium falciparum; assay type: functional, organism-based
[3] = biological target: T1, Plasmepsin II (Plasmodium falciparum, UniProt P46925); experiment: In vitro inhibition of plasmepsin-2 from Plasmodium falciparum.
T1 sequence (P46925 whole entry): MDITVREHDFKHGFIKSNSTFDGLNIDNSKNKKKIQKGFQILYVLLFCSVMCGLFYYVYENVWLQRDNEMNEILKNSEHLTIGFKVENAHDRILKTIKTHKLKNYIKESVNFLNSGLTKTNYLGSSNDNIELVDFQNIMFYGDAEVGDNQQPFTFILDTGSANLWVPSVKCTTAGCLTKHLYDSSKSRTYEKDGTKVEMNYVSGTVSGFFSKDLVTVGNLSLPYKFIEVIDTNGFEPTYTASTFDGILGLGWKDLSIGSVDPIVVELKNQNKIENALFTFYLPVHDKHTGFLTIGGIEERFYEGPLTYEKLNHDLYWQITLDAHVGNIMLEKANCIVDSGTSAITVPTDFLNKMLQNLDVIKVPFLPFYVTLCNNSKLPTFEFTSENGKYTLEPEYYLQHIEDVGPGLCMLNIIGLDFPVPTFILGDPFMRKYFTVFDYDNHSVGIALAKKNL

[4] = biological target: T1, Plasmepsin II; experiment: Inhibitory activity against plasmepsin-2 from Plasmodium falciparum

Cathepsin D, sequence (P07339 65-162 limits assumed): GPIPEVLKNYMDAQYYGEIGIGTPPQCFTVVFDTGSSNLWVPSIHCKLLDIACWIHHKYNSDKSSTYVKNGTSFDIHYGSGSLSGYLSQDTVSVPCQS
Cathepsin D, sequence (P07339 169-412 limits assumed): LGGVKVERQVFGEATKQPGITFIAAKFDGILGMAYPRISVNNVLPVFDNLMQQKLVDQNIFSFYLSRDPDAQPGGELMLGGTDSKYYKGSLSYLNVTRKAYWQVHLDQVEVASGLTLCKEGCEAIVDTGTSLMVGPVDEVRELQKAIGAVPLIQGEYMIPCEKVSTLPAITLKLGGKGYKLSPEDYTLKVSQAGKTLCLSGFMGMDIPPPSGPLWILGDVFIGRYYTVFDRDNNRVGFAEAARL

Compound	IC50 [1]	IC50 [2]	Ki [3]	Ki [1]	Ki [4]
CCCCNC(=O)CC(O)C(Cc1ccccc1)NC(=O)[C@@H](NC(=O)CN1CCC(C(N)=O)(c2ccccc2)CC1)[C@@H](C)CC (some centres not stated)	5500 nM	~20000 nM	410 nM	–	–
CCCCNC(=O)CC(O)C(CC(C)C)NC(=O)[C@@H](NC(=O)Cc1ccc2ccccc2c1)[C@@H](C)CC (some centres not stated)	–	–	–	320 nM	50 nM
CCCCNC(=O)CC(O)C(Cc1ccccc1)NC(=O)[C@@H](NC(=O)c1ccc(OC)cc1OC)C(C)C (some centres not stated)	–	–	500 nM	1600 nM	–
CCCCNC(=O)CC(O)C(Cc1ccccc1)NC(=O)[C@@H](NC(=O)c1ccc(OC)cc1OC)[C@@H](C)CC (some centres not stated)	–	–	220 nM	2400 nM	–
CCCCNC(=O)CC(O)C(Cc1ccccc1)NC(=O)[C@@H](NC(=O)c1ccc(CN2CCCC2)cc1)[C@@H](C)CC (some centres not stated)	1200 nM	~10000 nM	220 nM	–	–
CC[C@H](C)[C@H](NC(=O)CN1CCC(C(N)=O)(c2ccccc2)CC1)C(=O)NC(Cc1ccccc1)C(O)CC(=O)NCCCc1ccccc1 (some centres not stated)	–	–	600 nM	3900 nM	–
CCCCNC(=O)CC(O)C(CC(C)C)NC(=O)[C@H](CC(C)C)NC(=O)COc1ccc2ccccc2c1 (some centres not stated)	–	–	5600 nM	920 nM	–
CCC(C)C(NC(=O)c1ccc(CNC)cc1)C(=O)NC(CC(C)C)C(O)CC(=O)NCCCc1ccccc1 (configuration not stated)	–	–	440 nM	1300 nM	–

Now from value to compound:

IC50 [1]	IC50 [2]	Ki [3]	Ki [1]	Ki [4]	Compound
–	–	560 nM	200 nM	–	CCCCNC(=O)CC(O)C(Cc1ccccc1)NC(=O)[C@@H](NC(=O)COc1ccc2ccccc2c1)c1ccccc1 (some centres not stated)
–	–	90 nM	50 nM	–	CCCCNC(=O)CC(O)C(Cc1ccccc1)NC(=O)[C@@H](NC(=O)Cc1ccc2ccccc2c1)[C@@H](C)CC (some centres not stated)
–	–	> 30000 nM	200 nM	–	CCCCNC(=O)CC(O)C(Cc1ccccc1)NC(=O)[C@H](CCC(N)=O)NC(=O)COc1ccc2ccccc2c1 (some centres not stated)
500 nM	~10000 nM	110 nM	–	–	CCCCNC(=O)CC(O)C(Cc1ccccc1)NC(=O)[C@@H](NC(=O)COc1ccc2ccccc2c1)[C@@H](C)CC (some centres not stated)
–	–	12000 nM	1300 nM	–	CCCCNC(=O)CC(O)C(CC(C)C)NC(=O)[C@H](Cc1ccccc1)NC(=O)COc1ccc2ccccc2c1 (some centres not stated)
–	–	15000 nM	700 nM	–	CCCCNC(=O)CC(O)C(Cc1ccccc1)NC(=O)[C@H](NC(=O)COc1ccc2ccccc2c1)c1ccccc1 (some centres not stated)
–	–	5800 nM	110 nM	–	CCCCNC(=O)CC(O)C(CC(C)C)NC(=O)[C@@H](NC(=O)COc1ccc2ccccc2c1)c1ccccc1 (some centres not stated)
–	–	590 nM	2100 nM	–	CCCCNC(=O)CC(O)C(Cc1ccccc1)NC(=O)[C@@H](NC(=O)c1ccc(OC)cc1OC)c1ccccc1 (stereo in doubt; form 1)
–	–	> 30000 nM	6200 nM	–	CCCCNC(=O)CC(O)C(Cc1ccccc1)NC(=O)[C@@H](NC(=O)c1ccc(OC)cc1OC)c1ccccc1 (stereo in doubt; form 2)
